Entries after “also recorded” stand apart in the source; their conditions may differ.
What was measured:
Type in all cases: cell-based
[1] = test system: human dermal fibroblast (HDF) cells; assay: Hyaluronic acid in human dermal fibroblasts, pulsed versus daily treatment; conditions: for % Change in HA over control (daily): 12 consecutive days; for % Change in HA over control (daily) / % Change in HA over control (pulsed): Tiliacora triandra 0.05%, niacinamide 0.10%, glycolic acid 1 mM, retinol 1 μM, phytol 0.01%; for % Change in HA over control (pulsed): 2 days active / 2 days media without active, repeated over 12 days; for HA production, pulsed treatment compared with daily treatment: pulsed uses half as much active over 12 days
Experimental: After reaching about 75% confluence, cells were transferred into DMEM media without FBS, and incubated for 4-6 hours. Different wells were assigned to one of treatment regimens (1)-(2) as described above, with six wells allocated to each treatment regimen. All active ingredients were prepared as emulsions and applied directly to the HDF cells. […] Following treatment, cells were collected and the amount of hyaluronic acid (HA) secreted from the cells was measured using a commercially available HA assay (available from […] Inc., CO).

[2] = test system: Human dermal fibroblast cells; assay: Pro-collagen I secretion by human dermal fibroblasts (HTRF human pro-collagen I kit); conditions: 0.0001% phytol or 1 μM retinol alone for 16 days, re-treated every other day
Experimental: Human dermal fibroblast cells were grown in a 6-well plate in DMEM media (available from Corning, N.Y.) supplemented with 10% Fetal Bovine Serum (FBS) and L-glutamine (1.5×10^5 cells/plate) overnight. After reaching about 75% confluence, cells were transferred into DMEM media without FBS and incubated for 4-6 hours. Next, the cells were treated with either 0.0001% phytol or 1 μM retinol. Treatment with either phytol alone, or retinol alone was performed in DMEM media without FBS for 16 days. For sequential treatments, the cells were treated with 0.0001% phytol for 6 days followed by 1 μM retinol for 10 days, or with 1 μM retinol for 6 days, followed by 0.0001% phytol for 10 days. Every other day, media were collected and cells were re-treated with phytol or retinol in the same fashion. After treatment, the amount of collagen secreted into the culture media was determined using the HTRF human pro-collagen I kit (available from CISBIO, Inc).

[3] = test system: human dermal fibroblast (HDF) cells; assay: Pro-collagen type I assessment in human dermal fibroblasts (ELISA); conditions: 10 consecutive days, change from emulsion control, retinol 1 μM; for A alone (% change in pro-collagen): active A of Table 6 alone, phytol 0.0001%
Experimental: A series of experiments was conducted to assess the effects of the treatment regimens of active ingredients shown in Table 6 on the production of pro-collagen type I in human dermal fibroblast (HDF) cells. Five different treatment regimens were assessed: (1) active ingredient A, alone; […] (3) the combination of active ingredients A+B; […] For treatment regimens (1), (2), and (3), the active ingredients were applied to cells for 10 consecutive days. […] After reaching about 75% confluence, cells were transferred into DMEM media without FBS, and incubated for 4-6 hours. Different wells were assigned to one of treatment regimens (1)-(5) as described above, with six wells allocated to each treatment regimen. All active ingredients were prepared as emulsions and applied directly to the HDF cells. The specific active ingredients used in each of the five treatment regimens are provided below in Table 6. Following treatment, measurements on the amount of pro-collagen produced from the cells were performed using a commercially available pro-collagen type I enzyme-linked immuno sorbent assay (ELISA) kit (available from TAKARA Inc., KR). [table]

[4] = test system: human dermal fibroblast (HDF) cells; assay: Hyaluronic Acid (HA) assessment in human dermal fibroblasts; conditions: 10 consecutive days, n=6, change over emulsion control, retinol 1 μM; for A alone (% change in HA): active A of Table 3 alone, Tiliacora triandra 0.10%, glycolic acid 1 mM, KTFK 0.001%, sodium glycolate 10 μM; for B alone (% change in HA): active B of Table 3 alone, niacinamide 0.1%, Coleus forskohlii 0.001%, Tiliacora triandra 0.1%, Tetrapeptide 4 0.10%, phytol 0.010%
Experimental: A series of experiments was conducted to assess the effects of the treatment regimens of active ingredients on the production of hyaluronic acid (HA) in human dermal fibroblast (HDF) cells. The following five treatment regimens were assessed: (1) active ingredient A, alone; (2) active ingredient B, alone; (3) the combination of active ingredients A+B; (4) active ingredient A, alone, followed by active ingredient B, alone (“A/B”); and (5) active ingredient B, alone, followed by active ingredient A, alone (“B/A”). For treatment regimens (1), (2), and (3), the active ingredients were administered to cells for 10 consecutive days. For treatment regimens (4) and (5) (sequential regimens), the cells were treated with active ingredient A or active ingredient B for 5 days, followed by active ingredient B or active ingredient A for 5 days, respectively.
Human dermal fibroblast cells were grown in 96-well plates in DMEM media (available from CORNING, N.Y.) supplemented with 10% FBS and L-glutamine. After reaching about 75% confluence, cells were transferred into DMEM media without FBS, and incubated for 4-6 hours. Different wells were assigned to one of treatment regimens (1)-(5) as described above, with six wells allocated to each treatment regimen (i.e., n=6). All active ingredients were prepared as emulsions and applied directly to the HDF cells. The specific active ingredients used in each of the five treatment regimens are provided below in Table 3. Following treatment, cells were collected and the amount of hyaluronic acid (HA) secreted from the cells was measured using a commercially available HA assay (available from CORGENIX Inc., CO).
The results are summarized below in Table 4 and plotted in FIGS. 13-17 as a percentage change over control (i.e. cells treated with the same emulsion but in absence of active ingredients).

[5] = test system: Human 3D MelanoDerm MEL-B skin tissues; assay: Melanin in 3D skin models (SOLVABLE melanin assay); conditions: 14 consecutive days, n=6, change from control, niacinamide 0.1%; for A (% change in pigmentation): active A of Table 8 alone, TDPA 1%; for B (% change in pigmentation): active B of Table 8 alone, hexylresorcinol 0.05%
Experimental: A series of experiments was conducted to assess the effects of treatment regimens of active ingredients shown in Table 8 on the production of melanin in 3D models. Four different treatment regimens were assessed: (1) active ingredient A, alone; (2) active ingredient B, alone; (3) the combination of active ingredients A+B; and (4) active ingredient A, alone, followed by active ingredient B, alone, as detailed in Table 8. For treatment regimens (1), (2), and (3), the active ingredients were applied to cells for 14 consecutive days. For treatment regimen (4) (sequential regimen), the cells were treated with active ingredient A for 7 days, followed by treatment with the other active ingredient B for 7 days.
Human 3D MelanoDerm MEL-B skin tissues (available from MatTek, Mass.) were cultured following the manufacture instructions. Different skin tissue models were assigned to one of treatment regimens (1)-(4) as described above, with six models allocated to each treatment regimen (i.e., n=6). All active ingredients were prepared as emulsions and applied directly to the skin models. Following treatment, skin tissue models were collected and the amount of melanin produced from the cells was measured using a SOLVABLE melanin assay. Treated skin tissues were prepared using a phosphate buffer saline and sodium bicarbonate. Each skin tissue is added to 500 μl of 0.5 M SOLVABLE solubilizer (available from Packard BioScience) and incubated at 95° overnight. The absorbance of each skin tissue sample is measured at 490 nm and the absorbance is compared to a standard curve to indicate the amount of melanin produced and pigmentation in each skin tissue model.
The results for treatments measuring the melanin content produced are shown in Table 9 as a percentage change from control (i.e., untreated samples or samples treated with the same emulsion but in absence of active ingredients).

[6] = test system: Human 3D skin EFT400FT tissues; assay: HA in full thickness 3D skin models; conditions: 4 consecutive days, n=12; 4% glycolic acid topically or 0.2% Tiliacora triandra via growth media
Experimental: A series of experiments was conducted to assess the effects of the treatment regimens of glycolic acid and Tiliacora triandra on the production of hyaluronic acid (HA) on full thickness 3D skin cultures. Five different treatment regimens were assessed: (1) 4% glycolic acid, alone; (2) 0.2% Tiliacora triandra, alone; (3) the combination of 4% glycolic acid+0.2% Tiliacora triandra; (4) 4% glycolic acid, alone, followed by 0.2% Tiliacora triandra, alone; and (5) 0.2% Tiliacora triandra, alone, followed by 4% glycolic acid, alone. Glycolic acid was administered topically to the 3D tissue and Tiliacora triandra was administered via the growth media. For treatment regimens (1), (2), and (3), the active ingredient or ingredients were applied to cells for 4 consecutive days. For treatment regimens (4) and (5) (sequential regimens), the cells were treated with glycolic acid or Tiliacora triandra for 2 days, followed by Tiliacora triandra or glycolic acid for 2 days, respectively.
Human 3D skin EFT400FT tissues (MatTek, Mass.) were cultured following the manufacturer's instructions. Each treatment regimen was applied to twelve 3D skin samples. […] Following treatment, cells were collected and the amount of hyaluronic acid secreted from the cells was measured using a commercially available HA assay (available from CORGENIX Inc., CO). […]

Row | Compound | % Change in HA over control (daily) [1] [%] | % Change in HA over control (pulsed) [1] [%] | HA production, pulsed treatment compared with daily treatment [1] | A alone (% change in HA) [4] [%] | B alone (% change in HA) [4] [%] | further results
1 | CC1=C(/C=C/C(C)=C/C=C/C(C)=C/CO)C(C)(C)CCC1 [Retinol] | 17.2 | 32.0 | significantly more production of hyaluronic acid than in daily treatment regimens | 11.7 | 11.7 | pro-collagen production over treatment time [2]: declines for both phytol- and retinol-treated cells after day 13 despite continuing treatment; also recorded: plateau in effectiveness over time; A alone (% change in pro-collagen) [3]: 13.6%; B alone (% change in pro-collagen) ([3]; active B of Table 6 alone, Coleus forskohlii 0.001%): 3.9%
2 | Tetrapeptide-4 [Tetrapeptide 4] | – | – | – | – | 15.1 | –
3 | Lys-Thr-Phe-Lys (KTFK; printed: Lys-Thr-Phe-Lys) | – | – | – | 23.7 | – | –
4 | O=C([O-])CO.[Na+] [Sodium Glycolate] | – | – | – | −2.54 | – | –
5 | O=C(O)CCSCCC(=O)O [TDPA, thiodipropionic acid] | – | – | – | – | – | A (% change in pigmentation) [5]: −19.1%
6 | NC(=O)c1cccnc1 [Niacinamide] | −36.5 | 1.3 | – | – | −51.6 | A (% change in pigmentation) [5]: −18.9%; B (% change in pigmentation) [5]: −18.9%
7 | O=C(O)CO [Glycolic Acid] | 9.1 | 5.1 | only slightly less effective than daily treatment | 20.8 | – | percentage change in HA over control, active alone [6]: 42.6%
8 | CCCCCCc1ccc(O)cc1O [Hexylresorcinol] | – | – | – | – | – | B (% change in pigmentation) [5]: 140.4%
9 | C/C(=C\CO)CCC[C@H](C)CCC[C@H](C)CCCC(C)C [Phytol] | −4.0 | 25.1 | significantly more production of hyaluronic acid than in daily treatment regimens | – | 67.7 | pro-collagen production over treatment time [2]: declines for both phytol- and retinol-treated cells after day 13 despite continuing treatment; also recorded: plateau in effectiveness over time; A alone (% change in pro-collagen) [3]: 19.1%

Source: patent US10123954B1, “Methods for treating skin” (AVON PRODUCTS, INC., priority 2015, dated 2018)
